From PubChem BioAssay (NCI)
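1) Cells in 96-well plates. 2) Compound, 48 h, 5 concentrations. 3) Linear interpolation between surrounding doses. 4) Unreached endpoint = highest concentration. TGI: concentration producing complete growth inhibition.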

Tests used:
Experiment in all cases: NCI-60 cell line screen, 48 h
[1] = system: HCT-15 colon
[2] = system: UACC-62 melanoma
[3] = system: UO-31 renal
[4] = system: SK-MEL-28 melanoma
[5] = system: HOP-62 NSCLC
[6] = system: MOLT-4 leukemia
[7] = system: NCI-H460 lung
[8] = system: M14 melanoma
[9] = system: UACC-257 melanoma
[10] = system: NCI-H226 lung
[11] = system: SF-539 CNS
[12] = system: ACHN renal
[13] = system: U251 CNS
[14] = system: OVCAR-8 ovarian
[15] = system: HCC-2998 colon
[16] = system: MALME-3M melanoma
[17] = system: NCI-H522 lung
[18] = system: COLO 205 colon
[19] = system: HOP-18 NSCLC
[20] = system: DMS 273 small cell lung
[21] = system: KM12 colon
[22] = system: TK-10 renal
[23] = system: HCT-116 colon
[24] = system: SNB-78 CNS
[25] = system: CAKI-1 renal
[26] = system: SW-620 colon
[27] = system: DLD-1 colon
[28] = system: DMS 114 small cell lung
[29] = system: OVCAR-3 ovarian
[30] = system: HL-60(TB) leukemia
[31] = system: M19-MEL melanoma
[32] = system: SK-MEL-2 melanoma
[33] = system: RPMI-8226 leukemia
[34] = system: SF-268 CNS
[35] = system: RXF 393 renal
[36] = system: K-562 leukemia
[37] = system: 786-0 renal
[38] = system: SR leukemia
[39] = system: KM20L2 colon
[40] = system: A498 renal
[41] = system: A549 NSCLC
[42] = system: CCRF-CEM leukemia
[43] = system: LXFL 529 NSCLC
[44] = system: OVCAR-4 ovarian
[45] = system: SK-OV-3 ovarian
[46] = system: SNB-75 CNS
[47] = system: IGROV1 ovarian
[48] = system: SK-MEL-5 melanoma
[49] = system: SN12C renal
[50] = system: SNB-19 CNS
[51] = system: EKVX NSCLC
[52] = system: SF-295 CNS
[53] = system: HOP-92 NSCLC
[54] = system: LOX IMVI melanoma
[55] = system: OVCAR-5 ovarian
[56] = system: NCI-H23 lung
[57] = system: HT29 colon
[58] = system: RXF-631 renal
[59] = system: XF 498 CNS

C=CCC(C)(C(=O)NCCC)C(=O)c1ccccc1O (stereo unspecified)
TGI [1]: > 100 µM | TGI [2]: > 100 µM | TGI [3]: > 100 µM | TGI [4]: > 100 µM | TGI [5]: > 100 µM | TGI [6]: > 100 µM | TGI [7]: > 100 µM | TGI [8]: > 100 µM | TGI [9]: > 100 µM | TGI [10]: > 100 µM | TGI [11]: > 100 µM | TGI [12]: > 100 µM | TGI [13]: > 100 µM | TGI [14]: > 100 µM | TGI [15]: > 100 µM | TGI [16]: > 100 µM | TGI [17]: > 100 µM | TGI [18]: > 100 µM | TGI [19]: > 100 µM | TGI [20]: > 100 µM | TGI [21]: > 100 µM | TGI [22]: > 100 µM | TGI [23]: > 100 µM | TGI [24]: > 100 µM | TGI [25]: > 100 µM | TGI [26]: > 100 µM | TGI [27]: > 100 µM | TGI [28]: > 100 µM | TGI [29]: > 100 µM | TGI [30]: > 100 µM | TGI [31]: > 100 µM | TGI [32]: > 100 µM | TGI [33]: > 100 µM | TGI [34]: > 100 µM | TGI [35]: > 100 µM | TGI [36]: > 100 µM | TGI [37]: > 100 µM | TGI [38]: > 100 µM | TGI [39]: > 100 µM | TGI [40]: > 100 µM | TGI [41]: > 100 µM | TGI [42]: > 100 µM | TGI [43]: > 100 µM | TGI [44]: > 100 µM | TGI [45]: > 100 µM | TGI [46]: > 100 µM | TGI [47]: > 100 µM | TGI [48]: > 100 µM | TGI [49]: > 100 µM | TGI [50]: > 100 µM

COc1cc(C(CC(OC)OC)=C(C#N)C#N)cc(OC)c1OC
TGI [1]: > 100 µM | TGI [2]: > 100 µM | TGI [3]: > 100 µM | TGI [4]: > 100 µM | TGI [51]: > 100 µM | TGI [6]: 33.9 µM | TGI [7]: 23.4 µM | TGI [52]: 62.9 µM | TGI [9]: 36.9 µM | TGI [10]: 13.9 µM | TGI [11]: 37.1 µM | TGI [12]: > 100 µM | TGI [13]: 91.4 µM | TGI [14]: 73 µM | TGI [15]: 40.4 µM | TGI [16]: 76.9 µM | TGI [17]: 32.9 µM | TGI [53]: 50 µM | TGI [18]: 26.6 µM | TGI [54]: 25.1 µM | TGI [20]: 27.6 µM | TGI [21]: 60.5 µM | TGI [55]: > 100 µM | TGI [22]: > 100 µM | TGI [23]: 44.1 µM | TGI [24]: > 100 µM | TGI [25]: > 100 µM | TGI [26]: > 100 µM | TGI [27]: 13.7 µM | TGI [28]: 87.6 µM | TGI [56]: > 100 µM | TGI [29]: 73 µM | TGI [30]: 67.8 µM | TGI [31]: 33.4 µM | TGI [32]: 49.4 µM | TGI [34]: > 100 µM | TGI [35]: > 100 µM | TGI [37]: > 100 µM | TGI [38]: > 100 µM | TGI [39]: 69.4 µM | TGI [40]: 40 µM | TGI [41]: > 100 µM | TGI [42]: 59.1 µM | TGI [43]: > 100 µM | TGI [45]: > 100 µM | TGI [57]: 73.4 µM | TGI [46]: 82.2 µM | TGI [47]: > 100 µM | TGI [48]: 49.2 µM | TGI [49]: > 100 µM | TGI [50]: > 100 µM

O=C(Nc1cccc(C(F)(F)F)c1)c1cc(-c2ccccc2)nc(=S)[nH]1
TGI [1]: > 100 µM | TGI [3]: > 100 µM | TGI [5]: > 100 µM | TGI [7]: > 100 µM | TGI [8]: > 100 µM | TGI [52]: > 100 µM | TGI [9]: > 100 µM | TGI [10]: > 100 µM | TGI [14]: > 100 µM | TGI [15]: > 100 µM | TGI [16]: > 100 µM | TGI [53]: > 100 µM | TGI [18]: > 100 µM | TGI [54]: > 100 µM | TGI [19]: > 100 µM | TGI [20]: > 100 µM | TGI [21]: > 100 µM | TGI [55]: > 100 µM | TGI [23]: > 100 µM | TGI [25]: > 100 µM | TGI [26]: > 100 µM | TGI [29]: > 100 µM | TGI [30]: > 100 µM | TGI [31]: > 100 µM | TGI [32]: > 100 µM | TGI [38]: > 100 µM | TGI [39]: > 100 µM | TGI [43]: > 100 µM | TGI [44]: > 100 µM | TGI [57]: > 100 µM | TGI [49]: > 100 µM | TGI [50]: > 100 µM

CCc1cccc(C(C)CC)c1NC(=O)CC1C(=O)Nc2ccccc2S1=O (stereo unspecified)
TGI [1]: > 100 µM | TGI [2]: > 100 µM | TGI [3]: > 100 µM | TGI [4]: 68.1 µM | TGI [51]: > 100 µM | TGI [6]: 69 µM | TGI [7]: > 100 µM | TGI [8]: 55.8 µM | TGI [58]: > 100 µM | TGI [52]: > 100 µM | TGI [9]: > 100 µM | TGI [10]: > 100 µM | TGI [11]: 46.2 µM | TGI [12]: > 100 µM | TGI [13]: 48.5 µM | TGI [14]: > 100 µM | TGI [15]: > 100 µM | TGI [16]: > 100 µM | TGI [53]: 46.3 µM | TGI [54]: 73.7 µM | TGI [20]: > 100 µM | TGI [55]: > 100 µM | TGI [22]: > 100 µM | TGI [23]: > 100 µM | TGI [24]: 92.9 µM | TGI [25]: > 100 µM | TGI [26]: > 100 µM | TGI [27]: > 100 µM | TGI [28]: > 100 µM | TGI [56]: > 100 µM | TGI [29]: > 100 µM | TGI [30]: > 100 µM | TGI [31]: > 100 µM | TGI [32]: > 100 µM | TGI [33]: > 100 µM | TGI [34]: > 100 µM | TGI [35]: 46.1 µM | TGI [36]: > 100 µM | TGI [37]: > 100 µM | TGI [38]: 73.6 µM | TGI [39]: > 100 µM | TGI [40]: > 100 µM | TGI [41]: > 100 µM | TGI [42]: 90.3 µM | TGI [43]: > 100 µM | TGI [44]: 47.9 µM | TGI [57]: 55.1 µM | TGI [46]: 49.4 µM | TGI [47]: 78.6 µM | TGI [48]: > 100 µM | TGI [49]: > 100 µM | TGI [50]: > 100 µM

CCCN(CCC)c1c([N+](=O)[O-])cc(C(=O)N(C)C)cc1[N+](=O)[O-]
TGI [1]: > 100 µM | TGI [3]: > 100 µM | TGI [4]: > 100 µM | TGI [51]: > 100 µM | TGI [6]: > 100 µM | TGI [7]: > 100 µM | TGI [8]: > 100 µM | TGI [52]: > 100 µM | TGI [9]: > 100 µM | TGI [11]: > 100 µM | TGI [12]: 30.7 µM | TGI [13]: > 100 µM | TGI [14]: > 100 µM | TGI [15]: > 100 µM | TGI [16]: > 100 µM | TGI [17]: > 100 µM | TGI [18]: > 100 µM | TGI [20]: > 100 µM | TGI [21]: > 100 µM | TGI [55]: > 100 µM | TGI [22]: > 100 µM | TGI [59]: > 100 µM | TGI [23]: > 100 µM | TGI [24]: > 100 µM | TGI [25]: > 100 µM | TGI [27]: > 100 µM | TGI [28]: > 100 µM | TGI [56]: > 100 µM | TGI [29]: > 100 µM | TGI [30]: 86.8 µM | TGI [31]: > 100 µM | TGI [32]: > 100 µM | TGI [33]: > 100 µM | TGI [34]: > 100 µM | TGI [36]: > 100 µM | TGI [37]: > 100 µM | TGI [41]: > 100 µM | TGI [42]: > 100 µM | TGI [43]: > 100 µM | TGI [44]: 29.4 µM | TGI [45]: > 100 µM | TGI [57]: > 100 µM | TGI [46]: 31.5 µM | TGI [47]: > 100 µM | TGI [48]: 28.9 µM | TGI [49]: > 100 µM
